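Grown in 96-well plates, cells were treated for 48 hours with each compound at five concentrations. Insufficient inhibition: endpoint recorded as highest concentration tested. At the GI50, growth is halved.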 Activity calls are given as the source filed them. Cut-off read from the data, not from the text of the source: active = GI50 up to about 1.1 µM and inactive = higher.

Test systems include SK-OV-3; NCI/ADR-RES; NCI-H226; OVCAR-8; SR; NCI-H23; A549; TK-10; BT-549; SK-MEL-28; SNB-75; NCI-H522; SF-539; U-251; HCT-116; ACHN; RPMI-8226; HL-60; UACC-257; RXF 393.
Assay in all cases: NCI anticancer screen, dose series, 48 h

As to `C=C(c1nc2ccc(Cl)cc2[nH]c1=O)C(O)c1ccc(C(O)C(=O)c2nc3ccc(Cl)cc3[nH]c2=O)cc1` (stereo not given), the GI50 with SK-OV-3 is > 100 µM (inactive); in the experiment with NCI/ADR-RES it was > 100 µM (inactive); in the experiment with NCI-H226, > 100 µM (inactive); in the experiment on OVCAR-8 it was > 100 µM (inactive); in the experiment with SR it was 83.6 µM (inactive); with NCI-H23 it was > 100 µM (inactive). Moreover, the GI50 in the experiment with A549 is > 100 µM (inactive); in the experiment on TK-10 it was > 100 µM (inactive); in the experiment with BT-549 it was > 100 µM (inactive); with SK-MEL-28, > 100 µM (inactive); in the experiment with SNB-75, > 100 µM (inactive); in the experiment on NCI-H522, 47.1 µM (inactive). The GI50 with SF-539 was > 100 µM (inactive); in the experiment with U-251 it was > 100 µM (inactive); with HCT-116, > 100 µM (inactive); with ACHN, 61.7 µM (inactive); in the experiment with RPMI-8226, 9.06 µM (inactive); with HL-60, 5.04 µM (inactive). The GI50 with UACC-257 and in the experiment with RXF 393 was > 100 µM (inactive) throughout.
`CCOC(=O)/C=C(\C(=O)OCC)n1ccc(=O)n(Cc2cn(COCCOC(C)=O)nn2)c1=O`: the GI50 was > 100 µM (inactive) with SK-OV-3; 20.3 µM (inactive) in the experiment with NCI/ADR-RES; 7.67 µM (inactive) in the experiment with NCI-H226; 16.3 µM (inactive) in the experiment on OVCAR-8; 21 µM (inactive) with SR; 17.7 µM (inactive) in the experiment on NCI-H23. Besides, the GI50 in the experiment on A549 was > 76.4 µM (inactive); in the experiment on TK-10, 15.2 µM (inactive); in the experiment on BT-549 it was 17.8 µM (inactive); in the experiment on SK-MEL-28 it was 18 µM (inactive); with SNB-75, > 42.7 µM (inactive); with NCI-H522, 2.71 µM (inactive). Besides, the GI50 with SF-539 was 20.1 µM (inactive); in the experiment with U-251 it was 18.9 µM (inactive); with HCT-116, 16.3 µM (inactive); in the experiment with ACHN, 7.05 µM (inactive); in the experiment on RPMI-8226 it was 22.8 µM (inactive); with HL-60 it was 12.7 µM (inactive). Also, the GI50 in the experiment with UACC-257 was 22 µM (inactive); in the experiment on RXF 393, 15.7 µM (inactive).
`Cn1c2ccccc2c2c(=O)[nH]c(=O)[nH]c21`: the GI50 in the experiment with SK-OV-3, with NCI/ADR-RES, with NCI-H226, in the experiment with OVCAR-8, in the experiment on SR and with NCI-H23 was > 100 µM (inactive) in each case. The GI50 with A549 is > 100 µM (inactive); with TK-10, > 100 µM (inactive); in the experiment with BT-549 it was > 100 µM (inactive); in the experiment with SK-MEL-28, > 100 µM (inactive); in the experiment with SNB-75, 82.4 µM (inactive); in the experiment on NCI-H522, > 100 µM (inactive). Also, the GI50 in the experiment on SF-539, in the experiment on U-251, in the experiment with HCT-116, with ACHN, with RPMI-8226 and in the experiment on HL-60 was > 100 µM (inactive) throughout. Further, the GI50 in the experiment on UACC-257 and in the experiment with RXF 393 was > 100 µM (inactive) throughout.
Regarding `COC(CNC(=O)C(C)NC(=O)CCc1ccccc1)OC` (stereo not given), the GI50 with SK-OV-3, with NCI/ADR-RES, with NCI-H226, in the experiment with OVCAR-8, in the experiment on SR and with NCI-H23 was > 100 µM (inactive) in each case. Further, the GI50 with A549, in the experiment with TK-10, in the experiment with BT-549, in the experiment on SK-MEL-28, in the experiment with SNB-75 and in the experiment with NCI-H522 was > 100 µM (inactive) throughout. Besides, the GI50 in the experiment with SF-539, with U-251, with HCT-116, with ACHN, with RPMI-8226 and in the experiment on HL-60 was > 100 µM (inactive) in each case. Further, the GI50 with UACC-257 and in the experiment with RXF 393 was > 100 µM (inactive) in each case.
As for `CCOc1ccc(/N=C/c2ccnc3ccccc23)cc1`, the GI50 in the experiment on SK-OV-3 is 67.8 µM (inactive); in the experiment on NCI/ADR-RES, 35.9 µM (inactive); in the experiment on NCI-H226 it was 73.6 µM (inactive); in the experiment on OVCAR-8, 21.2 µM (inactive); with SR, 0.752 µM (active); in the experiment with NCI-H23 it was 49.3 µM (inactive). Moreover, the GI50 in the experiment on A549 is > 86.3 µM (inactive); in the experiment with TK-10, 92.3 µM (inactive); in the experiment with BT-549, 34.4 µM (inactive); in the experiment on SK-MEL-28, 50.1 µM (inactive); with SNB-75, 29.2 µM (inactive); in the experiment on NCI-H522 it was 36.3 µM (inactive). Further, the GI50 in the experiment on SF-539 was 26.5 µM (inactive); in the experiment on U-251 it was 32.7 µM (inactive); in the experiment on HCT-116 it was 0.912 µM (active); in the experiment with ACHN, 58.2 µM (inactive); in the experiment with RPMI-8226, 6.53 µM (inactive); in the experiment with HL-60, 2.05 µM (inactive). For the same compound, the GI50 is 98.6 µM (inactive) in the experiment with UACC-257 and > 96.6 µM (inactive) in the experiment with RXF 393.
With `C=C1C(=O)CC2C(=O)C(C)(O)CC/C=C(\C)C(=O)CC12` (stereo not given), the GI50 with SK-OV-3 was > 100 µM (inactive); in the experiment on NCI/ADR-RES, 38.5 µM (inactive); with NCI-H226, 6.07 µM (inactive); in the experiment with OVCAR-8, 20.1 µM (inactive); with SR, 20.2 µM (inactive); in the experiment on NCI-H23, 16.9 µM (inactive). For the same compound, the GI50 is 60.1 µM (inactive) in the experiment with A549; 12.7 µM (inactive) in the experiment on TK-10; 15.8 µM (inactive) in the experiment on BT-549; 24.3 µM (inactive) in the experiment with SK-MEL-28; > 41.9 µM (inactive) in the experiment on SNB-75; 3.19 µM (inactive) with NCI-H522. For the same compound, the GI50 in the experiment with SF-539 was 18.2 µM (inactive); in the experiment with U-251, > 49.5 µM (inactive); with HCT-116 it was 10.3 µM (inactive); in the experiment with ACHN it was 10.2 µM (inactive); in the experiment with RPMI-8226, 15 µM (inactive); with HL-60, 1.53 µM (inactive). The GI50 in the experiment on UACC-257 is 20 µM (inactive); in the experiment on RXF 393, 14.4 µM (inactive).
For the compound `COc1ccc2nc3ccccc3c(NCCN(C)CCCl)c2c1`, the GI50 was 0.861 µM (active) in the experiment with SK-OV-3; 0.647 µM (active) with NCI/ADR-RES; 0.608 µM (active) in the experiment on NCI-H226; 0.431 µM (active) in the experiment on OVCAR-8; 0.0303 µM (active) in the experiment on SR; 0.604 µM (active) in the experiment with NCI-H23. Further, the GI50 with A549 is 0.479 µM (active); with TK-10 it was 1.62 µM (inactive); in the experiment with BT-549 it was 0.9 µM (active); in the experiment on SK-MEL-28, 1.69 µM (inactive); in the experiment on SNB-75 it was 1.04 µM (active); with NCI-H522, 0.282 µM (active). Besides, the GI50 was 0.388 µM (active) in the experiment with SF-539; 0.541 µM (active) in the experiment with U-251; 0.249 µM (active) in the experiment with HCT-116; 0.24 µM (active) in the experiment on ACHN; 0.247 µM (active) with RPMI-8226; 0.259 µM (active) in the experiment on HL-60. The GI50 in the experiment on UACC-257 is 1.64 µM (inactive); in the experiment on RXF 393 it was 0.592 µM (active).
Turning to `COC(=O)c1ccccc1/C=C1/Cc2cccc(C)c2C1=O`, the GI50 with SK-OV-3, in the experiment on NCI/ADR-RES, in the experiment on NCI-H226, in the experiment on OVCAR-8, in the experiment with SR and in the experiment with NCI-H23 was > 100 µM (inactive) throughout. The GI50 was > 100 µM (inactive) in the experiment with A549; > 100 µM (inactive) in the experiment on TK-10; 93.8 µM (inactive) in the experiment on BT-549; > 100 µM (inactive) in the experiment on SK-MEL-28; 35.4 µM (inactive) in the experiment with SNB-75; > 100 µM (inactive) in the experiment with NCI-H522. In addition, the GI50 in the experiment with SF-539 was > 100 µM (inactive); in the experiment on U-251, 31 µM (inactive); in the experiment on HCT-116, > 100 µM (inactive); in the experiment on ACHN, 57.5 µM (inactive); in the experiment with RPMI-8226 it was > 100 µM (inactive); with HL-60 it was > 100 µM (inactive). Further, the GI50 was > 100 µM (inactive) in the experiment with UACC-257 and 41.2 µM (inactive) with RXF 393.
In the case of `CC1(C)O[C@H]2OC3CCC(=O)CC3(O)[C@H]2O1` (stereo not given in full), the GI50 in the experiment with SK-OV-3, in the experiment on NCI/ADR-RES, with NCI-H226, in the experiment with OVCAR-8, in the experiment with SR and in the experiment with NCI-H23 was > 100 µM (inactive) each time. Besides, the GI50 in the experiment with A549, in the experiment with TK-10, with BT-549, in the experiment with SK-MEL-28, in the experiment on SNB-75 and in the experiment on NCI-H522 was > 100 µM (inactive) in each case. Moreover, the GI50 in the experiment on SF-539, with U-251, in the experiment with HCT-116, in the experiment with ACHN, in the experiment on RPMI-8226 and in the experiment with HL-60 was > 100 µM (inactive) in each case. Moreover, the GI50 with UACC-257 and in the experiment with RXF 393 was > 100 µM (inactive) throughout.
As to `N=C(N)N/N=C/c1c(Cl)nc2n1CCS2`, the GI50 with SK-OV-3 was 57.3 µM (inactive); with NCI/ADR-RES it was > 100 µM (inactive); with NCI-H226 it was > 100 µM (inactive); with OVCAR-8 it was > 100 µM (inactive); in the experiment with SR, 50.5 µM (inactive); in the experiment on NCI-H23, 96.2 µM (inactive). Further, the GI50 in the experiment with A549 was 62.5 µM (inactive); in the experiment on TK-10, > 100 µM (inactive); in the experiment with BT-549, > 100 µM (inactive); with SK-MEL-28, > 100 µM (inactive); in the experiment with SNB-75, > 100 µM (inactive); with NCI-H522 it was 42.4 µM (inactive). Moreover, the GI50 with SF-539 was 47.5 µM (inactive); in the experiment on U-251, 82.4 µM (inactive); in the experiment on HCT-116, 16.6 µM (inactive); with ACHN, 54.7 µM (inactive); in the experiment with RPMI-8226 it was > 100 µM (inactive); in the experiment with HL-60 it was > 100 µM (inactive). Also, the values for the GI50 with UACC-257 and in the experiment on RXF 393 were > 100 µM (inactive) and 22.5 µM (inactive), respectively.

The record behind these values is ChEMBL document CHEMBL1201862, “PubChem BioAssay data set” (2004).
